The structures appear in SMILES notation. Where two headings read alike, the source gives them in different places.

In one data set the test system is endothelial cells (ECs). Kind of data set: In vitro antiangiogenesis on ECs (inhibition of endothelial cell growth). Type of data set: cell-based. To be noted: Homo sapiens, read-out: In vitro antiangiogenesis IC50. The method, then: (§1) The endothelial cells (human endothelial-like cells, Eahy926) and 4 cancer cell lines (MCF-7, H460, HT-29, and CEM) were derived from the American Type Culture Collection (ATCC) and were maintained in DMEM or RPMI medium (Life Technologies) supplemented with 2 mM L-glutamine and 10% heat-inactivated fetal bovine serum (FBS) (Life Technologies) under standard culture conditions. The cell viability and cell number were determined by the Trypan Blue dye-exclusion method.
(§2) Anti-angiogenic effects of CH-205 compounds were estimated by their inhibition on the growth of endothelial cells. The toxicity of CH-205 compounds to endothelial cells was estimated using MTT (3-(4,5-dimethy;thiazol-2-yl)-2,5-diphenyltetrazolium bromide, a tetrazole) assay. MTT assay is a standard colorimetric assay (an assay which measures changes in color) for measuring the activity of enzymes that reduce yellow MTT to formazan, giving a purple color. It is also used to determine cytotoxity of potential medicinal agents and other toxic materials, since those agents would result in cell toxicity and therefore metabolic dysfunction and therefore decreased performance in the assay. The cytotoxity concentrations of the CH-205 compounds measured in MTT test are all over 20 μM (Table 2), however, their effects on angiogenesis inhibition are in nM range, indicating the safety of these compounds (Table 3).

The next data set has as its system MCF-7. The data set is described as follows: Alamar blue cytotoxicity assay on MCF-7 cancer cells. The data set is classed as cell-based. The settings on record: for IC50: Homo sapiens, MCF7, alamar blue, 48 hours treatment. The method, then:
as §1
(§3) The alamar blue (AB) assay (dye purchased from Biosource International, Nivelles, Belgium) was used to estimate cell viability in accordance with procedures previously described by Fatokun et al (Bone (2006) 39, 542-551). Briefly, cells were treated with various concentration of each of the test compounds (e.g., compounds of example 1.1) at 37° C. for 48 hours, and the medium in each well was then aspirated at the end of the treatment, 100 μL of fresh medium containing 10% v/v AB was then added to the control and the treated wells, respectively. Plates were then incubated at 37° C. for 6 hour prior to measuring the absorbance at 570 nm and at 600 nm wavelengths using a spectrophotometric plate reader (DYNEX Technologies, USA). Experimental data were normalized to control values. CH-205-A, K, L, O, and -P were effective on MCF-7 cells; CH-205-A, H, K, L, O, and -P were effective on H460 cells; CH-205-A and -P were effective on HT-29 cells and CH-205-A, H, N, and -O were effective on CEM cells.

The subject of a further data set is HT-29. Kind of data set: Alamar blue cytotoxicity assay on HT-29 cancer cells. Type of data set: cell-based. The settings on record: for IC50: Homo sapiens, HT-29, alamar blue, 48 hours treatment. The method, then: as §1, §3
(Resazurin is reduced to fluorescent resorufin, in cell work by metabolically active cells.)

The next data set concerns H460. The data set is described as follows: Alamar blue cytotoxicity assay on H460 cancer cells. Type of data set: cell-based, human. To be noted: for IC50: Homo sapiens, NCI-H460, alamar blue, 48 hours treatment. As to the method: as §1, §3
Data set [1] can be described thus: MTT cell viability of endothelial cells (ECs). The data set is classed as cell-based, human. The settings on record: human, column head prints none, read-out: Cell viability IC50 (cytotoxicity concentration on ECs). As to the method: as §1, §2
The subject of data set [2] is endothelial cells (human endothelial-like cells, Eahy926). The data set is described as follows: MTT cell viability of endothelial cells (ECs). Type of data set: cell-based. The method, then:
as §1, §2

The test system of the next data set is CEM. The data set is described as follows: Alamar blue cytotoxicity assay on CEM cancer cells. The data set is classed as cell-based. The settings on record: for IC50: Homo sapiens, CCRF-CEM, alamar blue, 48 hours treatment. The method, then: as §1, §3
The test system of data set [3] is H460 human lung cancer tumor xenograft.
Method: The established, transplantable, 5×10^6/200 μL H460 tumor cells were prepared in RPMI medium. The 200 μL of cell suspension was injected subcutaneously into right flank area of each mouse. The mice were randomized into vehicle control and drug treatment groups of four-six animals each when xenografts were palpable with a tumor size of 40 mm^3. Adminitration of the lead compounds or vehicle began on day 15 when the median tumor size was ranged from 75 to 80 mm^3. Tumor-bearing animals were randomized (five per group) prior to treatment. The candidate test drugs were intraperitoneal (IP) administered into with optimal dosage once every other day (48 hr apart) for 7 or 10 times. […] Solvent vehicle and cisplatin (5 mg/kg) were used to administrate, respectively, as io negative and positive controls. Two days after last administration of tested compounds, the animals were sacrificed. The tumor dimensions were measured every other day using a linear caliper and tumor volume is calculated using the equation V (mm^3)=a×b^2/2, where a is the largest diameter and b is the smallest diameter. Body weights are also recorded once weekly. Tumor is growth inhibition ratio (TGI) is calculated using the equation TGI=(1−(the mean treated tumor mass/mean control tumor mass))*100%.

Regarding `COc1cc(O)c(C(=O)O[C@@H]2C[C@@]3(C)C2=C(C=O)C=C2CC(C)(C)C[C@@H]23)c(C)c1Cl` [CH-205-A], in the data set on endothelial cells (ECs), the IC50 turned out to be 0.0403 µM. In the data set on MCF-7, the “effective on MCF-7 cells” value is reported as “effective” and the IC50 was found to be 4.8 µM. For the same compound, in the data set with HT-29, the “effective on HT-29 cells” value is given as “effective” and the IC50 amounted to 4.6 µM. Also, in the data set with H460, the “effective on H460 cells” value is given as “effective” and the IC50 stood at 5.5 µM. In addition, in data set [1] (Eahy926 endothelial-like cells), the IC50 was 24.1 µM. Besides, in data set [2], the “Cell viability (% of control) 1 μM” value was 101.4 % of control, the “Cell viability (% of control) 10 μM” value is 87.9 % of control, the “Cell viability (% of control) 50 μM” value is 17.7 % of control and the “Cell viability (% of control) 100 μM” value is given as 8.4 % of control. In addition, in data set [2], the “Cell viability (% of control) 250 μM” value was 7.1 % of control and the “Cell viability (% of control) 500 μM” value was 7.9 % of control. For the same compound, in the data set with CEM, the “effective on CEM cells” value is “effective” and the IC50 was found to be 5.8 µM.
With `COc1cc(O)c(C(=O)O[C@@H]2C[C@]3(C)C4[C@@H](O)C(C)(C)C[C@@]4(O)C=C(C=O)[C@]23O)c(C)c1Cl` (stereo partly drawn) [CH-205-E, (2R,2a6,4aR,7R,7bR)-3-formyl-2,2a,4a,5,6,7,7a,7b-octahydro-2a,4a,7-trihydroxy-6,6,7b-trimethyl-1H-cyclobuta[e]inden-2-yl 3-chloro-6-hyd roxy-4-methoxy-2-methylbenzoate], in the data set with endothelial cells (ECs) (ECs), the IC50 stood at 0.023 µM. This compound also showed an IC50 with MCF-7 greater than 100 µM. In the data set on HT-29, this compound showed an IC50 of 85.6 µM. This compound registered an IC50 with H460 greater than 100 µM. The IC50 in data set [1] (Eahy926 endothelial-like cells) is 220 µM. For the same compound, in data set [2], the “Cell viability (% of control) 1 μM” value is 93.5 % of control, the “Cell viability (% of control) 10 μM” value is recorded as 98.6 % of control, the “Cell viability (% of control) 50 μM” value is 80.8 % of control and the “Cell viability (% of control) 100 μM” value is 63.7 % of control. Moreover, in data set [2], the “Cell viability (% of control) 250 μM” value is 32.1 % of control and the “Cell viability (% of control) 500 μM” value is listed as 7.4 % of control. In addition, in the data set with CEM, the IC50 was determined as 49.6 µM.
`Cc1cc(O)cc(O)c1C(=O)O[C@@H]1C[C@]2(C)C3CC(C)(C)CC3C=C(CO)[C@]12O` (stereo partly drawn) [CH-205-L, (2R,2aS,7bR)-2,2a,4a,5,6,7,7a,7b-octahydro-2a-hydroxy-3-(hydroxymethyl)-6,6,7b-trimethyl-1H-cyclobuta[e]inden-2-yl 2,4-dihydroxy-6-methylbenzoate]: the IC50 in the data set with endothelial cells (ECs) (ECs) was 0.0011 µM. In the data set with MCF-7, the “effective on MCF-7 cells” value is reported as “effective” and the IC50 was determined as 8.3 µM. In the data set with HT-29, this compound came in with an IC50 of 58.4 µM. Further, in the data set on H460, the “effective on H460 cells” value was “effective” and the IC50 is 5.1 µM. The IC50 in data set [1] (Eahy926 endothelial-like cells) is 21.1 µM. For the same compound, in data set [2], the “Cell viability (% of control) 1 μM” value is on record as 93.2 % of control, the “Cell viability (% of control) 10 μM” value is 118.8 % of control, the “Cell viability (% of control) 50 μM” value is reported as 6.5 % of control and the “Cell viability (% of control) 100 μM” value is reported as 6.4 % of control. In data set [2], the “Cell viability (% of control) 250 μM” value is recorded as 6.5 % of control and the “Cell viability (% of control) 500 μM” value is 9.8 % of control. In the data set with CEM, this compound yielded an IC50 of 41.2 µM.
As for `Cc1c(Cl)c(O)cc(O)c1C(=O)O[C@@H]1C[C@]2(C)[C@H]3CC(C)(C)C[C@@]3(O)C=C(C=O)[C@]12O` [CH-205-N, (2R,2aS,4aR,7aR,7bR)-3-formyl-2,2a,4a,5,6,7,7a,7b-octahydro-2a,4a-dihydroxy-6,6,7b-trimethyl-1H-cyclobuta[e]inden-2-yl 3-chloro-4,6-dihydroxy-2-methylbenzoate], the IC50 in the data set on endothelial cells (ECs) (ECs) turned out to be 0.0035 µM. Also, the IC50 in the data set with MCF-7 is greater than 100 µM. In the data set with HT-29, this compound gave an IC50 of 32.1 µM. Moreover, the IC50 in the data set with H460 was greater than 100 µM. For the same compound, the IC50 in data set [1] (Eahy926 endothelial-like cells) was 270 µM. In data set [2], the “Cell viability (% of control) 1 μM” value was 96.5 % of control, the “Cell viability (% of control) 10 μM” value is recorded as 94.1 % of control, the “Cell viability (% of control) 50 μM” value is on record as 96.5 % of control and the “Cell viability (% of control) 100 μM” value is on record as 85.1 % of control. In data set [2], the “Cell viability (% of control) 250 μM” value is 55.2 % of control and the “Cell viability (% of control) 500 μM” value is reported as 7.6 % of control. In addition, in the data set on CEM, the “effective on CEM cells” value is recorded as “effective” and the IC50 is 5.5 µM.
With `COc1cc(O)c(C(=O)O[C@@H]2C[C@]3(C)C4C(C=C(C=O)[C@]23O)CC(C)(C)[C@@H]4O)c(C)c1Cl` (stereo partly drawn) [CH-205-P, (2R,2aS,7R,7bR)-3-formyl-2,2a,4a,5,6,7,7a,7b-octahydro-2a,7-dihydroxy-6,6,7b-trimethyl-1H-cyclobuta[e]inden-2-yl 3-chloro-6-hydroxy-4-methoxy-2-methylbenzoate], the IC50 in the data set with endothelial cells (ECs) (ECs) is 0.0018 µM. Besides, in the data set on MCF-7, the “effective on MCF-7 cells” value was “effective” and the IC50 was determined as 4.4 µM. Besides, in the data set with HT-29, the “effective on HT-29 cells” value was “effective” and the IC50 came out at 34.7 µM. Moreover, in the data set on H460, the “effective on H460 cells” value is reported as “effective” and the IC50 stood at 5.7 µM. The IC50 in data set [1] (Eahy926 endothelial-like cells) amounted to 20.7 µM. In data set [2], the “Cell viability (% of control) 1 μM” value is reported as 105.1 % of control, the “Cell viability (% of control) 10 μM” value is listed as 78.5 % of control, the “Cell viability (% of control) 50 μM” value is on record as 6.8 % of control and the “Cell viability (% of control) 100 μM” value is given as 9.8 % of control. Moreover, in data set [2], the “Cell viability (% of control) 250 μM” value is listed as 6.8 % of control and the “Cell viability (% of control) 500 μM” value is 9.6 % of control. Further, the IC50 with CEM came out at 44.6 µM.
Turning to `Cc1c(Cl)c(O)cc(O)c1C(=O)O[C@@H]1C[C@]2(C)C3[C@@H](O)C(C)(C)C[C@@]3(O)C=C(C=O)[C@]12O` (stereo partly drawn) [CH-205-Q, (2R,2aS,4aR,7R,7bR)-3-formyl-2,2a,4a,5,6,7,7a,7b-octahydro-2a,4a,7-trihydroxy-6,6,7b-trimethyl-1H-cyclobuta[e]inden-2-yl 3-chloro-4,6-dihydroxy-2-methyl benzoate], in the data set with endothelial cells (ECs), the IC50 came to 0.001 µM. Moreover, the IC50 in the data set with MCF-7 was greater than 100 µM. Also, in the data set with HT-29, the IC50 was greater than 100 µM. In addition, in the data set on H460, the IC50 is greater than 100 µM. Also, in data set [1], the IC50 was greater than 500 µM. For the same compound, in data set [2], the “Cell viability (% of control) 1 μM” value is reported as 104.7 % of control, the “Cell viability (% of control) 10 μM” value was 98.9 % of control, the “Cell viability (% of control) 50 μM” value is 105.5 % of control and the “Cell viability (% of control) 100 μM” value is given as 108.6 % of control. Besides, in data set [2], the “Cell viability (% of control) 250 μM” value is recorded as 100.2 % of control and the “Cell viability (% of control) 500 μM” value was 74.1 % of control. This compound returned an IC50 in the data set with CEM greater than 100 µM.
As for `N.N.[Cl][Pt][Cl]` [cisplatin, reference compound], the “Tumor growth inhibition ratio (TGI)” value is listed as 77.78% in data set [3] (CH-205-K study, positive control 5 mg/kg (fifth value of the sentence)) and 82% in data set [3] (CH-205-O study, positive control 5 mg/kg).

The values above are taken from patent US20110262561A1, “Protoilludance Norsesquiterpenoid Esters and Uses Thereof” (NATIONAL RESEARCH INSTITUTE OF CHINESE MEDICINE, priority 2010, published 2011).
